Test results reported in the NIST ThermoML archive (doi:10.1021/je3011979).
Numbers after ± are expanded uncertainties.

Key:
[1] = xn = mol fraction of the nth substance listed; details: 101 kPa, Liquid, Vibrating tube method
[2] = excess molar enthalpy (molar enthalpy of mixing); xn = mol fraction of the nth substance listed; details: 291.15 K, 101 kPa, Liquid, Calvet calorimetry
[3] = Liquid; for mass density: 101 kPa, Vibrating tube method; for vapor or sublimation pressure: Ebulliometric method (Recirculating still)
[4] = refractive index (Na D-line) (dimensionless); details: 101.33 kPa, Liquid, Standard Abbe refractometry

CCCCCCC [heptane] + CCCOC(C)=O
[1], x2 = 0
Details	mass density [kg/m3]
291.15 K	685.3 ± 0.3
298.15 K	679.5 ± 0.3
318.15 K	662.1 ± 0.3
328.15 K	653.7 ± 0.3

CCCCCCCC [octane] + CCCOC(C)=O
[1], x2 = 0
Details	mass density [kg/m3]
291.15 K	704.1 ± 0.3
298.15 K	698.6 ± 0.3
318.15 K	682.2 ± 0.3
328.15 K	674.1 ± 0.3

CCCCC [pentane] + CCCOC(C)=O
[2]
Details	excess molar enthalpy [kcal/mol]
x2 = 0.0667	0.0535 ± 0.0012
x2 = 0.1334	0.097 ± 0.00143
x2 = 0.2047	0.147 ± 0.00167
x2 = 0.2753	0.186 ± 0.00191
x2 = 0.3414	0.2185 ± 0.00191
x2 = 0.4028	0.2361 ± 0.00215
x2 = 0.461	0.2452 ± 0.00215
x2 = 0.5088	0.2464 ± 0.00215
x2 = 0.5257	0.245 ± 0.00215
x2 = 0.5824	0.2326 ± 0.00215
x2 = 0.6434	0.2141 ± 0.00191
x2 = 0.7089	0.188 ± 0.00191
x2 = 0.7812	0.152 ± 0.00167
x2 = 0.8537	0.107 ± 0.00143
x2 = 0.9242	0.0595 ± 0.0012

mass density [kg/m3], [1]
Details	291.15 K	298.15 K
x2 = 0	628.2 ± 0.3	621.4 ± 0.3
x2 = 0.0101	–	623.7 ± 0.4
x2 = 0.0121	631.2 ± 0.4	–
x2 = 0.0346	–	629.8 ± 0.4
x2 = 0.0427	638.8 ± 0.4	–
x2 = 0.0754	–	640 ± 0.4
x2 = 0.078	647.7 ± 0.4	–
x2 = 0.1377	–	655.9 ± 0.4
x2 = 0.1417	664 ± 0.4	–
x2 = 0.1977	–	671.4 ± 0.4
x2 = 0.2048	680.3 ± 0.4	–
x2 = 0.2734	698.2 ± 0.4	–
x2 = 0.283	–	693.6 ± 0.4
x2 = 0.3338	714.1 ± 0.4	–
x2 = 0.3439	–	709.7 ± 0.4
x2 = 0.3934	729.8 ± 0.4	–
x2 = 0.4072	–	726.4 ± 0.4
x2 = 0.4636	748.4 ± 0.4	–
x2 = 0.4881	–	747.7 ± 0.4
x2 = 0.5218	–	756.5 ± 0.4
x2 = 0.5224	763.9 ± 0.4	–
x2 = 0.5876	781.1 ± 0.4	–
x2 = 0.5968	–	776.4 ± 0.4
x2 = 0.6565	799.3 ± 0.4	792.1 ± 0.4
x2 = 0.7085	–	805.9 ± 0.4
x2 = 0.7136	814.4 ± 0.4	–
x2 = 0.7697	829.2 ± 0.4	–
x2 = 0.8277	844.6 ± 0.4	–
x2 = 0.8437	–	841.6 ± 0.4
x2 = 0.8911	861.3 ± 0.4	–
x2 = 0.9205	–	861.8 ± 0.4
x2 = 0.923	869.7 ± 0.4	–

CCCCC [pentane]
Details	mass density, 291.15 K [kg/m3]	mass density, 298.15 K [kg/m3]	refractive index, 298.15 K	vapor or sublimation pressure, 309.24 K [kPa]
[3]	628.2 ± 0.3	621.4 ± 0.3	–	101.32 ± 0.46
[4]	–	–	1.3545 ± 0.0005	–

CCCCCCC [heptane]
Details	mass density, 291.15 K [kg/m3]	mass density, 298.15 K [kg/m3]	mass density, 318.15 K [kg/m3]	mass density, 328.15 K [kg/m3]	refractive index, 298.15 K	refractive index, 318.15 K	vapor or sublimation pressure, 371.55 K [kPa]
[3]	685.3 ± 0.3	679.5 ± 0.3	662.1 ± 0.3	653.7 ± 0.3	–	–	101.32 ± 0.46
[4]	–	–	–	–	1.3852 ± 0.0005	1.3748 ± 0.0005	–

CCCOC(C)=O [propyl ethanoate]
Details	mass density [kg/m3]	refractive index	vapor or sublimation pressure [kPa]
[3], 291.15 K	889.6 ± 0.2	–	–
[3], 298.15 K	882.5 ± 0.2	–	–
[3], 318.15 K	859.8 ± 0.2	–	–
[3], 318.35 K	–	–	12.14 ± 0.04
[3], 322.19 K	–	–	14.43 ± 0.05
[3], 325.87 K	–	–	17.04 ± 0.05
[3], 328.15 K	848.3 ± 0.2	–	–
[3], 328.95 K	–	–	19.43 ± 0.05
[3], 331.59 K	–	–	21.77 ± 0.05
[3], 334.22 K	–	–	24.29 ± 0.05
[3], 336.6 K	–	–	26.79 ± 0.05
[3], 338.75 K	–	–	29.12 ± 0.06
[3], 340.72 K	–	–	31.53 ± 0.06
[3], 342.66 K	–	–	33.96 ± 0.06
[3], 344.52 K	–	–	36.46 ± 0.06
[3], 346.15 K	–	–	38.78 ± 0.06
[3], 347.73 K	–	–	41.14 ± 0.07
[3], 349.35 K	–	–	43.69 ± 0.07
[3], 350.81 K	–	–	46.08 ± 0.07
[3], 352.19 K	–	–	48.41 ± 0.07
[3], 353.57 K	–	–	50.84 ± 0.08
[3], 354.78 K	–	–	53.11 ± 0.08
[3], 356.03 K	–	–	55.48 ± 0.08
[3], 357.29 K	–	–	57.96 ± 0.08
[3], 358.41 K	–	–	60.24 ± 0.08
[3], 359.52 K	–	–	62.59 ± 0.09
[3], 360.63 K	–	–	65 ± 0.09
[3], 361.71 K	–	–	67.41 ± 0.09
[3], 362.73 K	–	–	69.74 ± 0.09
[3], 363.81 K	–	–	72.28 ± 0.1
[3], 364.84 K	–	–	74.8 ± 0.1
[3], 365.86 K	–	–	77.35 ± 0.1
[3], 366.81 K	–	–	79.8 ± 0.1
[3], 367.7 K	–	–	82.11 ± 0.11
[3], 368.62 K	–	–	84.58 ± 0.11
[3], 369.51 K	–	–	87.01 ± 0.11
[3], 370.41 K	–	–	89.57 ± 0.11
[3], 371.18 K	–	–	91.8 ± 0.12
[3], 371.99 K	–	–	94.17 ± 0.12
[3], 372.78 K	–	–	96.55 ± 0.12
[3], 373.55 K	–	–	98.87 ± 0.12
[3], 373.97 K	–	–	100.18 ± 0.12
[3], 374.34 K	–	–	101.32 ± 0.46
[3], 374.52 K	–	–	101.32 ± 0.13
[3], 375.1 K	–	–	103.76 ± 0.14
[3], 375.78 K	–	–	106.19 ± 0.13
[3], 376.51 K	–	–	108.56 ± 0.13
[3], 377.29 K	–	–	111.14 ± 0.14
[3], 377.98 K	–	–	113.47 ± 0.14
[3], 378.69 K	–	–	115.96 ± 0.14
[3], 379.36 K	–	–	118.3 ± 0.14
[3], 380.04 K	–	–	120.71 ± 0.15
[3], 380.74 K	–	–	123.19 ± 0.15
[3], 381.41 K	–	–	125.61 ± 0.15
[3], 382.06 K	–	–	128.01 ± 0.15
[3], 382.71 K	–	–	130.42 ± 0.16
[3], 383.34 K	–	–	132.85 ± 0.16
[3], 384.01 K	–	–	135.42 ± 0.16
[3], 384.55 K	–	–	137.67 ± 0.16
[3], 385.18 K	–	–	140.04 ± 0.17
[3], 385.79 K	–	–	142.47 ± 0.17
[3], 386.36 K	–	–	144.8 ± 0.17
[3], 386.9 K	–	–	147.09 ± 0.17
[3], 387.49 K	–	–	149.51 ± 0.18
[3], 388.06 K	–	–	151.96 ± 0.18
[3], 388.63 K	–	–	154.37 ± 0.18
[3], 389.16 K	–	–	156.68 ± 0.19
[3], 389.68 K	–	–	158.99 ± 0.19
[3], 390.18 K	–	–	161.23 ± 0.19
[3], 390.68 K	–	–	163.46 ± 0.19
[3], 391.22 K	–	–	165.89 ± 0.19
[3], 391.7 K	–	–	168.13 ± 0.2
[3], 392.24 K	–	–	170.62 ± 0.2
[3], 392.73 K	–	–	172.98 ± 0.2
[3], 393.23 K	–	–	175.35 ± 0.2
[3], 393.71 K	–	–	177.64 ± 0.21
[3], 394.16 K	–	–	180.01 ± 0.21
[3], 394.66 K	–	–	182.44 ± 0.21
[3], 395.17 K	–	–	185.03 ± 0.22
[3], 395.67 K	–	–	187.59 ± 0.22
[3], 396.16 K	–	–	190.1 ± 0.22
[3], 396.69 K	–	–	192.76 ± 0.22
[4], 298.15 K	–	1.3818 ± 0.0005	–
[4], 318.15 K	–	1.372 ± 0.0005	–

CCCCCCCCC [nonane] + CCCOC(C)=O
[1], x2 = 0
Details	mass density [kg/m3]
291.15 K	719.2 ± 0.3
298.15 K	713.9 ± 0.3
318.15 K	698.1 ± 0.3
328.15 K	690.2 ± 0.3

CCCCCCCCCC [decane] + CCCOC(C)=O
[1], x2 = 0
Details	mass density [kg/m3]
291.15 K	731.2 ± 0.2
298.15 K	726.2 ± 0.3
318.15 K	710.9 ± 0.3
328.15 K	703.3 ± 0.3

CCCCCCCCC [nonane]
Details	mass density, 291.15 K [kg/m3]	mass density, 298.15 K [kg/m3]	mass density, 318.15 K [kg/m3]	mass density, 328.15 K [kg/m3]	refractive index, 298.15 K	refractive index, 318.15 K	vapor or sublimation pressure, 423.94 K [kPa]
[3]	719.2 ± 0.3	713.9 ± 0.3	698.1 ± 0.3	690.2 ± 0.3	–	–	101.32 ± 0.46
[4]	–	–	–	–	1.4031 ± 0.0005	1.3938 ± 0.0005	–

CCCCCC [hexane]
Details	mass density, 291.15 K [kg/m3]	mass density, 298.15 K [kg/m3]	mass density, 318.15 K [kg/m3]	mass density, 328.15 K [kg/m3]	refractive index, 298.15 K	refractive index, 318.15 K	vapor or sublimation pressure, 341.89 K [kPa]
[3]	661.2 ± 0.3	654.8 ± 0.3	636.7 ± 0.3	627.2 ± 0.3	–	–	101.32 ± 0.46
[4]	–	–	–	–	1.3723 ± 0.0005	1.3615 ± 0.0005	–

CCCCCCCC [octane]
Details	mass density, 291.15 K [kg/m3]	mass density, 298.15 K [kg/m3]	mass density, 318.15 K [kg/m3]	mass density, 328.15 K [kg/m3]	refractive index, 298.15 K	refractive index, 318.15 K	vapor or sublimation pressure, 398.85 K [kPa]
[3]	704.1 ± 0.3	698.6 ± 0.3	682.2 ± 0.3	674.1 ± 0.3	–	–	101.32 ± 0.46
[4]	–	–	–	–	1.3952 ± 0.0005	1.3855 ± 0.0005	–

CCCCCC [hexane] + CCCOC(C)=O
[1], x2 = 0
Details	mass density [kg/m3]
291.15 K	661.2 ± 0.3
298.15 K	654.8 ± 0.3
318.15 K	636.7 ± 0.3
328.15 K	627.2 ± 0.3

CCCOC(C)=O [propyl ethanoate] + CCCCC
[1], x1 = 1
Details	mass density [kg/m3]
291.15 K	889.6 ± 0.2
298.15 K	882.5 ± 0.2

CCCCCCCCCC [decane]
Details	mass density, 291.15 K [kg/m3]	mass density, 298.15 K [kg/m3]	mass density, 318.15 K [kg/m3]	mass density, 328.15 K [kg/m3]	refractive index, 298.15 K	refractive index, 318.15 K	vapor or sublimation pressure, 447.27 K [kPa]
[3]	731.2 ± 0.2	726.2 ± 0.3	710.9 ± 0.3	703.3 ± 0.3	–	–	101.32 ± 0.46
[4]	–	–	–	–	1.4096 ± 0.0005	1.4008 ± 0.0005	–
